Assays:
[1] = tested on: Haemophilus Influenzae; assay: H. influenzae Activity; type: cell-based; settings: for decrease in activity compared to OMT: strains ATCC9006 and ATCC49766
[2] = tested on: E. faecalis; assay: Biological activity against bacterial strains: E. faecalis; type: cell-based, Enterococcus faecalis; settings: strain ATCC51575
[3] = tested on: S. pneumoniae; assay: Biological activity against bacterial strains: S. pneumoniae; type: cell-based, Streptococcus pneumoniae; design: Biological Activity, S. pneumoniae ATCC6301 / Biological Activity, S. pneumoniae ATCC700671 / Biological Activity, S. pneumoniae ATCC700676* / Biological Activity, S. pneumoniae ATCC700677* / Biological Activity, S. pneumoniae ATCC700905* / Biological Activity, S. pneumoniae ATCC700906* / Biological Activity, S. pneumoniae ATCC49619: unit not given here; settings: for Biological Activity, S. pneumoniae ATCC6301: strain ATCC6301; for Biological Activity, S. pneumoniae ATCC49619: strain ATCC49619; for Biological Activity, S. pneumoniae ATCC700671: strain ATCC700671; for Biological Activity, S. pneumoniae ATCC700676*: strain ATCC700676, macrolide resistant strain; for Biological Activity, S. pneumoniae ATCC700677*: strain ATCC700677, macrolide resistant strain; for Biological Activity, S. pneumoniae ATCC700905*: strain ATCC700905, macrolide resistant strain; for Biological Activity, S. pneumoniae ATCC700906*: strain ATCC700906, macrolide resistant strain
[4] = tested on: S. aureus; assay: Biological activity against bacterial strains: S. aureus; type: cell-based, Staphylococcus aureus; design: unit not given here; settings: for Biological Activity, S. aureus ATCC6538p: strain ATCC6538p; for Biological Activity, S. aureus ATCC14154*: strain ATCC14154, macrolide resistant strain; for Biological Activity, S. aureus ATCC29213: strain ATCC29213; for Biological Activity, S. aureus ATCC33591*: strain ATCC33591, macrolide resistant strain; for Biological Activity, S. aureus ATCCBAA-39*: strain ATCCBAA-39, macrolide resistant strain; for Biological Activity, S. aureus ATCCBAA-44*: strain ATCCBAA-44, macrolide resistant strain
[5] = tested on: S. epidermidis; assay: Biological activity against bacterial strains: S. epidermidis; type: cell-based, Staphylococcus epidermidis; settings: strain ATCC12228

Row | Structure (SMILES) | H. influenzae Activity, strain ATCC9006 [1] | H. influenzae Activity, strain ATCC49766 [1] | Biological Activity, E. faecalis ATCC51575 [2] | Biological Activity, S. pneumoniae ATCC6301 [3] | Biological Activity, S. pneumoniae ATCC49619 [3] | Biological Activity, S. pneumoniae ATCC700671 [3] | Biological Activity, S. pneumoniae ATCC700676* [3] | Biological Activity, S. pneumoniae ATCC700677* [3] | Biological Activity, S. pneumoniae ATCC700905* [3] | Biological Activity, S. pneumoniae ATCC700906* [3] | Biological Activity, S. aureus ATCC6538p [4] | Biological Activity, S. aureus ATCC14154* [4] | Biological Activity, S. aureus ATCC29213 [4] | Biological Activity, S. aureus ATCC33591* [4] | Biological Activity, S. aureus ATCCBAA-39* [4] | Biological Activity, S. aureus ATCCBAA-44* [4] | Biological Activity, S. epidermidis ATCC12228 [5] | also measured
1 | CCC1OC(=O)CC(O)C(C)C(OC2OC(C)C(O)C(N(C)C)C2O)C(CC=O)CC(C)C(=NOCCCOc2ccc3ncccc3c2)C=CC(C)=CC1CO (stereo not drawn) [Compound A] | 6.25 | 6.25 | >12.5 | 0.025 | 0.01 | 0.025 | 0.025 | 0.20 | 0.025 | >12.5 | 0.025 | 0.20 | 0.098 | >12.5 | >12.5 | >12.5 | 0.098 | decrease in activity compared to OMT [1]: ~4 fold
2 | CCC1OC(=O)CC(O)C(C)C(OC2OC(C)C(O)C(N(C)C)C2O)C(CC=O)CC(C)C(=NOCCCCc2cnc3ccccc3c2)C=CC(C)=CC1CO (stereo not drawn) [Compound J] | 6.25 | 6.25 | >12.5 | 0.025 | 0.049 | 0.025 | 0.025 | 0.025 | 0.025 | >12.5 | 0.025 | 0.20 | 0.20 | >12.5 | >12.5 | >12.5 | 0.20 | decrease in activity compared to OMT [1]: ~4 fold
3 | CCC1OC(=O)CC(O)C(C)C(OC2OC(C)C(O)C(N(C)C)C2O)C(CC=O)CC(C)C(=NOCCCCOc2ccc3ncccc3c2)C=CC(C)=CC1COC(=O)NCc1ccccc1 (stereo not drawn) [Compound EE] | 12.5 | >12.5 | >12.5 | 0.049 | 0.098 | 0.2 | 0.049 | 0.39 | 0.049 | >12.5 | 3.12 | 6.25 | 6.25 | >12.5 | >12.5 | >12.5 | 6.25 | –
4 | CCC1OC(=O)CC(O)C(C)C(OC2OC(C)C(O)C(N(C)C)C2O)C(CC=O)CC(C)C(=NOCC=Cc2cnc3ccccc3c2)C=CC(C)=CC1COC(=O)NCc1ccccc1 (stereo not drawn) [Compound FF] | 12.5 | 12.5 | >12.5 | 0.2 | 0.2 | 0.2 | 0.049 | 0.2 | 0.098 | >12.5 | 1.56 | 6.25 | 3.12 | 12.5 | >12.5 | >12.5 | 3.12 | –
5 | CC[C@H]1OC(=O)C[C@@H](O)[C@H](C)[C@@H](O[C@@H]2O[C@H](C)[C@@H](O)[C@H](N(C)C)[C@H]2O)[C@@H](CC=O)C[C@@H](C)C(=O)/C=C/C(C)=C/[C@@H]1CO [OMT, 5-O-mycaminosyltylonolide, reference compound] | 1.56 | 1.56 | >12.5 | 0.025 | 0.098 | 0.049 | 0.78 | 6.25 | 0.78 | >12.5 | 0.39 | 1.56 | 0.78 | >12.5 | >12.5 | >12.5 | 0.39 | H. influenzae Activity, strain EH001 ([1]; strain EH001): 3.12; H. influenzae Activity, strain EH002 ([1]; strain EH002): 6.25; H. influenzae Activity, strain EH003 ([1]; strain EH003): 1.56
6 | CC[C@H]1OC(=O)C[C@@H](O)[C@H](C)[C@@H](OC2OC(C)C(O)C(N(C)C)C2O)[C@@H](CC=O)C[C@@H](C)C(=N/OCc2ccc(F)cc2)/C=C/C(C)=C/C1CO (stereo partly drawn) [Compound IId] | – | – | >12.5 | 0.025 | 0.2 | 0.2 | 0.025 | 1.56 | 0.2 | >12.5 | 0.39 | 1.56 | 1.56 | >12.5 | >12.5 | >12.5 | 0.78 | –
7 | CCC1OC(=O)CC(O)C(C)C(OC2OC(C)C(O)C(N(C)C)C2O)C(CCN2CC(C)CC(C)C2)CC(C)C(=NOCCOc2ccccc2)C=CC(C)=CC1CO (stereo not drawn) [Compound V] | – | – | >12.5 | 0.20 | 0.39 | 0.39 | 0.78 | >12.5 | 0.39 | >12.5 | 0.78 | 6.25 | 6.25 | >12.5 | >12.5 | >12.5 | 6.25 | –
8 | CCC1OC(=O)CC(O)C(C)C(OC2OC(C)C(O)C(N(C)C)C2O)C(CCN2CC(C)CC(C)C2)CC(C)C(=NOCCCOc2ccc3ncccc3c2)C=CC(C)=CC1CO (stereo not drawn) [Compound S] | – | – | >12.5 | 6.25 | 6.25 | 6.25 | 12.5 | >12.5 | 12.5 | >12.5 | >12.5 | >12.5 | >12.5 | >12.5 | >12.5 | >12.5 | >12.5 | –
